Assay results from patent publication US20250018048A1, “FLUCONAZOLE-COX INHIBITOR HYBRIDS: A DUAL-ACTING CLASS OF ANTIFUNGAL AZOLES” (Ramot at Tel-Aviv University Ltd., priority 2022, published 2025).
In brackets after ≈: the same amount, converted by molar mass.

Legend:
Assay type in all cases: cell-based
C. guilliermondii T-47 = assay: MIC80 broth double-dilution assay; conditions: YPAD medium, 30° C., 24 h
Method: (§1) The antifungal activities of the 24 azole-COX inhibitor hybrids were evaluated against a panel of 16 representative strains of different species of the genus Candida. Candida species cause both superficial and systemic infections. The panel included strains of C. albicans, C. glabrata, C. parapsilosis, C. tropicalis, C. guilliermondii, C. dubliniensis, and C. auris (Table S2). To evaluate antifungal activity, the minimal inhibitory concentration 80% (MIC80) values were determined, which were defined as the lowest drug concentrations with turbidity (measured at OD600) less than or equal to that of specific 1:5 dilutions of the growth control. As controls, FLC and VOR, were tested.
(§2) C. albicans, C. glabrata, C. parapsilosis, C. guilliermondii, C. tropicalis, and C. dubliniensis MICs were determined using CLSI M27-A3 guidelines with minor modifications. Starter cultures were streaked from glycerol stock onto YPAD agar plates and grown for 24 h at 30° C. Colonies were suspended in 1 mL PBS and diluted to 1×10^−3 OD600 and then diluted 1:100 into fresh medium. Hybrids dissolved in DMSO were added to YPAD broth (32 μL stock solution in 1218 μL of YPAD broth), and serial double dilutions of hybrids in YPAD were prepared in flat-bottomed 96-well microplates (Corning) to enable testing of concentrations ranging from 64 μg/mL to 0.003 μg/mL. Control wells with yeast cells but no drug and blank wells containing only YPAD were prepared. An equal volume (100 μL) of yeast suspensions in YPAD broth was added to each well with the exceptions of the blank wells. MIC values (Tables S4-S6) were determined after 24 h at 30° C. by measuring the OD600 using a plate reader (Infinite M200 PRO, Tecan). MIC values were defined as the point at which the OD600 was reduced by >80% compared to the no-drug wells. Each concentration was tested in triplicate, and results were confirmed by two independent sets of experiments. FLC and VOR were used as control drugs.

C. albicans ATCC 90028 = assay: MIC80 broth double-dilution assay; conditions: YPAD medium, 30° C., 24 h
Method: as §1
(§3) MIC80 values were determined using the broth microdilution method over a concentration range of 0.003-64 μg/mL. Orange circles represent C. albicans strains, yellow circles represent C. glabrata strains, and green circles represent C. parapsilosis, C. tropicalis, C. dubliniensis and C. auris. Cells were grown in YPAD medium at 30° C. (For C. auris strains 37° C.) 24 h. Each concentration was tested in triplicate, and results were confirmed in at least two independent experiments.
as §2

C. tropicalis 660 = assay: MIC80 broth double-dilution assay; conditions: YPAD medium, 30° C., 24 h
Method: as §1, §3, §2

C. albicans P-87 = assay: MIC80 broth double-dilution assay; conditions: YPAD medium, 30° C., 24 h
Method: as §1, §3, §2

C. dubliniensis T-99 = assay: MIC80 broth double-dilution assay; conditions: YPAD medium, 30° C., 24 h
Method: as §1, §3, §2

C. albicans ATCC 24433 = assay: MIC80 broth double-dilution assay; conditions: YPAD medium, 30° C., 24 h
Method: as §1, §3, §2

C. albicans SC5314 = assay: MIC80 broth double-dilution assay; conditions: YPAD medium, 30° C., 24 h
Method: as §1, §3, §2

[1] = tested on: C. parapsilosis ATCC 22019; assay: MIC80 broth double-dilution assay; conditions: YPAD medium, 30° C., 24 h
Method: as §1, §3, §2

[2] = tested on: C. albicans 742 (erg11ΔΔ/erg3ΔΔ mutant C. albicans strain); assay: MIC80 broth double-dilution assay, strain lacking CYP51; conditions: YPAD medium, 30° C., 24 h; erg11ΔΔ/erg3ΔΔ mutant lacking CYP51
Method: as §1
(§4) The clinically used FLC and VOR act primarily by preventing ergosterol biosynthesis via inhibition of CYP51. Analysis was done to determine whether fungal growth inhibition by the hybrids required the presence of the ERG11 gene that encodes for CYP51. The antifungal activities of hybrids 1 and 5 and of FLC and VOR were determined against an erg11ΔΔ/erg3ΔΔ mutant C. albicans strain and against C. albicans SN152 from which this double knockout strain was derived (Table S2). […] Yeast growth was followed at OD600 over 48 h in 96-well plates containing serial double dilutions of the tested hybrids.
as §2

C. albicans SN152 = assay: MIC80 broth double-dilution assay; conditions: YPAD medium, 30° C., 24 h; parent strain of the erg11ΔΔ/erg3ΔΔ mutant
Method: as §1, §3, §4, §2

C. auris ATCC MYA5002 = assay: MIC broth double-dilution assay with MTT (CLSI M27-A3); conditions: YPAD medium, 37° C., 24 h, growth score 0 or 1
Method: (§5) Minimal inhibitory concentration broth double-dilution assay: C. auris minimal inhibitory concentrations (MICs) were determined using CLSI M27-A3 guidelines with minor modifications. Starter cultures were streaked from glycerol stock onto YPAD agar plates and grown for 24 h at 37° C. Colonies were suspended in 1 mL PBS and diluted to 1×10^−3 optical density at 600 nm (OD600) and then diluted 1:100 into fresh medium. hybrids dissolved in DMSO were added to YPAD broth (32 μL stock solution in 1218 μL of YPAD broth), and serial double dilutions of hybrids in YPAD were prepared in flat-bottomed 96-well microplates (Corning) to enable testing of concentrations ranging from 64 μg/mL to 0.007 μg/mL. Control wells with yeast cells but no drug and blank wells containing only YPAD were prepared. An equal volume (100 μL) of yeast suspension in YPAD broth was added to each well with the exceptions of the blank wells. After incubation for 24 h at 37° C., MTT (50 μL of a 1 mg/mL solution in ddH2O) was added to each well followed by additional incubation at 37° C. for 2 h. MIC values (Table S3) were defined as the lowest concentration of an antifungal agent that caused a specified reduction in visible growth as per the CLSI M27-A3 protocol. The magnitude of reduction in visible growth was assessed using the following numerical scale: 0, optically clear; 1, slightly hazy; 2, prominent decrease (˜50%) in visible growth; 3, slight reduction in visible growth; and 4, no reduction in visible growth. The MIC was defined based on reduction in growth to 0 or 1. Results were confirmed in two independent experiments, and each concentration was tested in triplicate. FLC and VOR were used as control drugs.

C. auris ATCC MYA5001 = assay: as above; conditions: YPAD medium, 37° C., 24 h, growth score 0 or 1
Method: as §5

[3] = tested on: erg11ΔΔ/erg3ΔΔ mutant C. albicans; assay: Growth curve analysis of C. albicans lacking CYP51; conditions: entire range of concentrations (64 to 1 μg/mL), YPAD, 30° C., 48 h
Method: as §4
Cells of erg11ΔΔ/erg3ΔΔ mutant C. albicans were grown in YPAD media at 30° C. and treated with different concentrations of the tested hybrids. Growth was measured by recording the OD600 values every 40 minutes over a 48-h course on an automated plate reader.
Growth curve analyses: Growth curves were determined using the double-dilution method in 96-well plates. Starter cultures were streaked from glycerol stock onto YPAD agar plates and grown for 24 h at 30° C. Colonies were suspended in 1 mL PBS and diluted to 1×10^−3 OD600 and then diluted 1:100 into fresh medium. Hybrids dissolved in DMSO were added to YPAD broth (32 μL stock solution in 1218 μL of YPAD broth), and serial double dilutions of hybrids in YPAD were prepared in flat-bottomed 96-well microplates (Corning) to enable testing of concentrations ranging from 64 μg/mL to 1 μg/mL. Control wells with yeast cells but no drug (100% growth) and blank wells containing only YPAD (0% growth) were prepared. An equal volume (100 μL) of yeast suspensions in YPAD broth was added to each well with the exceptions of the blank wells. Growth was determined at 30° C. by measuring the OD600 using a plate reader (Infinite M200 PRO, Tecan) every 40 minutes over 48 h. Each concentration was tested in triplicate, and results were confirmed by two independent sets of experiments. FLC and VOR were used as control drugs.

Compound	MIC80 against C. guilliermondii T-47 (C. guilliermondii T-47) [µg/mL]	MIC80 against C. albicans 90028 (C. albicans ATCC 90028) [µg/mL]	MIC80 against C. tropicalis 660 (C. tropicalis 660) [µg/mL]	MIC80 against C. albicans P-87 (C. albicans P-87) [µg/mL]	MIC80 against C. dubliniensis T-99 (C. dubliniensis T-99) [µg/mL]	MIC80 against C. albicans 24433 (C. albicans ATCC 24433) [µg/mL]	MIC80 against C. albicans SC5314 (C. albicans SC5314) [µg/mL]	MIC80 against C. parapsilosis 22019 [1] [µg/mL]	MIC80 against C. albicans 742 [2] [µg/mL]	MIC80 against C. albicans SN152 (C. albicans SN152) [µg/mL]	MIC against C. auris 5002 (C. auris ATCC MYA5002) [µg/mL]	MIC against C. auris 5001 (C. auris ATCC MYA5001) [µg/mL]	Effect on growth (OD600) of the double knockout mutant [3]
COc1ccc2cc([C@@H](C)C(=O)NC[C@](O)(Cn3cncn3)c3ccc(F)cc3F)ccc2c1 [Hybrid 10]	1 (≈ 2.14 µM)	0.12 (≈ 0.257 µM)	4 (≈ 8.57 µM)	0.25 (≈ 0.536 µM)	2 (≈ 4.29 µM)	0.25 (≈ 0.536 µM)	0.12 (≈ 0.257 µM)	1 (≈ 2.14 µM)	>64	0.012 (≈ 0.0257 µM)	16 (≈ 34.3 µM)	0.5 (≈ 1.07 µM)	–
O=C(NC[C@](O)(Cn1cncn1)c1ccc(F)cc1F)c1cccnc1Nc1cccc(C(F)(F)F)c1 [Hybrid 17]	2 (≈ 3.86 µM)	0.12 (≈ 0.231 µM)	2 (≈ 3.86 µM)	0.25 (≈ 0.482 µM)	2 (≈ 3.86 µM)	0.12 (≈ 0.231 µM)	0.12 (≈ 0.231 µM)	0.5 (≈ 0.964 µM)	16 (≈ 30.9 µM)	0.06 (≈ 0.116 µM)	4 (≈ 7.72 µM)	0.25 (≈ 0.482 µM)	–
O=C(NC[C@](O)(Cn1cncn1)c1ccc(F)cc1F)c1cc(-c2ccc(F)cc2F)ccc1O [Hybrid 19]	2 (≈ 4.11 µM)	0.12 (≈ 0.247 µM)	0.12 (≈ 0.247 µM)	0.03 (≈ 0.0617 µM)	2 (≈ 4.11 µM)	0.06 (≈ 0.123 µM)	0.06 (≈ 0.123 µM)	0.06 (≈ 0.123 µM)	64 (≈ 132 µM)	0.03 (≈ 0.0617 µM)	2 (≈ 4.11 µM)	0.12 (≈ 0.247 µM)	–
O=C(NC[C@](O)(Cn1cncn1)c1ccc(F)cc1F)c1ccccc1O [Hybrid 21]	1 (≈ 2.67 µM)	0.25 (≈ 0.668 µM)	0.12 (≈ 0.321 µM)	0.12 (≈ 0.321 µM)	2 (≈ 5.34 µM)	0.12 (≈ 0.321 µM)	0.12 (≈ 0.321 µM)	1 (≈ 2.67 µM)	>64	0.12 (≈ 0.321 µM)	8 (≈ 21.4 µM)	0.25 (≈ 0.668 µM)	–
O=C(NC[C@@](O)(Cn1cncn1)c1ccc(F)cc1F)c1ccccc1O [Hybrid 22]	16 (≈ 42.7 µM)	8 (≈ 21.4 µM)	32 (≈ 85.5 µM)	16 (≈ 42.7 µM)	>64	16 (≈ 42.7 µM)	8 (≈ 21.4 µM)	8 (≈ 21.4 µM)	>64	8 (≈ 21.4 µM)	–	–	–
O=C(Cc1ccccc1Nc1c(Cl)cccc1Cl)NC[C@](O)(Cn1cncn1)c1ccc(F)cc1F [Hybrid 23]	8 (≈ 15 µM)	1 (≈ 1.88 µM)	>64	1 (≈ 1.88 µM)	4 (≈ 7.51 µM)	1 (≈ 1.88 µM)	1 (≈ 1.88 µM)	0.5 (≈ 0.939 µM)	>64	1 (≈ 1.88 µM)	64 (≈ 120 µM)	2 (≈ 3.76 µM)	–
O=C(Cc1ccccc1Nc1c(Cl)cccc1Cl)NC[C@@](O)(Cn1cncn1)c1ccc(F)cc1F [Hybrid 24]	>64	>64	>64	>64	2 (≈ 3.76 µM)	>64	>64	>64	>64	>64	–	–	–
CC(C(=O)O)c1ccc(-c2ccccc2)c(F)c1 (stereo not shown) [flurbiprofen]	–	–	–	–	–	–	–	–	–	–	–	–	Dose-dependent growth reduction
CC(C)Cc1ccc(C(C)C(=O)O)cc1 (stereo not shown) [ibuprofen]	–	–	–	–	–	–	–	–	–	–	–	–	Dose-dependent growth reduction
